The nature of this data set: recombinant UMI read abundance after kanamycin selection (control-corrected) (log10(CPM+1)); higher = more efficient recombination; extreme values may be limits of the assay; sequences stand for … in AGTGCAGAGAAAATCGGCCAGTTTTCTCTGCCTGCAGTCCGCATGCCGTGGGACCCCTTGGGTTCTAACCTGTTGCCTAGATTTATGCAGCGGACTGCCTTTCTCCCAAAGTGATAAACCGG…AGGTTGGTTTCACT; site = the 11-nt donor. In a few lines:
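Reported values are log10(CPM+1) from a pooled Escherichia coli screen of donor and donor-binding-loop pairs for the IS621 bridge recombinase. Selection used IPTG (0.07 mM) plus kanamycin, against unselected plating, each in two replicates. Recombinant UMIs were amplified across the donor–target junction, sequenced, converted to CPM, averaged over replicates and scaled by control-derived factors.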
With “AGGAAGACATGGACCGGTTTTCCCGGTAATCCGTATTTGCA (site ATCAAGACTTG)”, the “recombinant UMI read abundance (log10)” value was 0.869. Turning to “AGGAAGACATGGACCGGTTTTCCCGGTAATCCGTATTTGCA (site ATGAAGACTAG)”, the “recombinant UMI read abundance (log10)” value amounted to 0. As to “AGGAAGACATGGACCGGTTTTCCCGGTAATCCGTATTTGCA (site ATGAAGACTTC)”, the “recombinant UMI read abundance (log10)” value worked out at 0.0122. With “AGGAAGACATGGACCGGTTTTCCCGGTAATCCGTATTTGCA (site ATGAAGACTTG)”, the “recombinant UMI read abundance (log10)” value worked out at 1.43. With “AGGAAGACATGGACCGGTTTTCCCGGTAATCCGTATTTGCA (site ATGAAGGCTTG)” the figure was 0; with “AGGAAGACATGGACCGGTTTTCCCGGTAATCCGTATTTGCA (site ATGAATACTTG)”, 0. For the sequence “AGGAAGACATGGACCGGTTTTCCCGGTAATCCGTATTTGCA (site ATGACGACTTG)”, the “recombinant UMI read abundance (log10)” value was 0.

As for “AGGAAGACATGGACCGGTTTTCCCGGTAATCCGTATTTGCA (site ATGCAGACTTG)”, the “recombinant UMI read abundance (log10)” value is 0.701. “AGGAAGACATGGACCGGTTTTCCCGGTAATCCGTATTTGCA (site CAGAAGACTTG)”: the “recombinant UMI read abundance (log10)” value was 1.43.

In the case of “AGGAAGACATGGACCGGTTTTCCCGGTAATCCGTATTTGCA (site CGGAACACTTG)”, the “recombinant UMI read abundance (log10)” value worked out at 0.912. With “AGGAAGACATGGACCGGTTTTCCCGGTAATCCGTATTTGCA (site CGGAAGACTGG)” the figure was 0.

On to “AGGAAGACATGGACCGGTTTTCCCGGTAATCCGTATTTGCA (site CGGAAGACTTG)”, for which the “recombinant UMI read abundance (log10)” value is 0.801. To “AGGAAGACATGGACCGGTTTTCCCGGTAATCCGTATTTGCA (site CGGAAGACTTT)” belongs 0.95. As for “AGGAAGACATGGACCGGTTTTCCCGGTAATCCGTATTTGCA (site CGGAAGCCTTG)”, the “recombinant UMI read abundance (log10)” value amounted to 0. As to “AGGAAGACATGGACCGGTTTTCCCGGTAATCCGTATTTGCA (site CGGAGGACTTG)”, the “recombinant UMI read abundance (log10)” value was 0.505.

On to “AGGAAGACATGGACCGGTTTTCCCGGTAATCCGTATTTGCA (site CGGTAGACTTG)”, for which the “recombinant UMI read abundance (log10)” value came out at 1.27. Take “AGGAAGACATGGACCGGTTTTCCCGGTAATCCGTATTTGCA (site CGTAAGACTTG)”: the “recombinant UMI read abundance (log10)” value came out at 0.977. As for “AGGAAGACATGGACCGGTTTTCCCGGTAATCCGTATTTGCA (site GGCAAGACTTG)”, the “recombinant UMI read abundance (log10)” value amounted to 2.22. As to “AGGAAGACATGGACCGGTTTTCCCGGTAATCCGTATTTGCA (site GGGAAGACTAG)”, the “recombinant UMI read abundance (log10)” value was determined as 0. On to “AGGAAGACATGGACCGGTTTTCCCGGTAATCCGTATTTGCA (site GGGAAGACTTC)”, for which the “recombinant UMI read abundance (log10)” value amounted to 0. With “AGGAAGACATGGACCGGTTTTCCCGGTAATCCGTATTTGCA (site GGGAAGACTTG)” the figure was 0.614; with “AGGAAGACATGGACCGGTTTTCCCGGTAATCCGTATTTGCA (site GGGAAGGCTTG)”, 0; with “AGGAAGACATGGACCGGTTTTCCCGGTAATCCGTATTTGCA (site GGGAATACTTG)”, 0.

For the sequence “AGGAAGACATGGACCGGTTTTCCCGGTAATCCGTATTTGCA (site GGGACGACTTG)”, the “recombinant UMI read abundance (log10)” value is 0.00563. On to “AGGAAGACATGGACCGGTTTTCCCGGTAATCCGTATTTGCA (site GGGCAGACTTG)”, for which the “recombinant UMI read abundance (log10)” value was 0.837. For “AGGAAGACATGGACCGGTTTTCCCGGTAATCCGTATTTGCA (site GTGAAGACTTG)”, the “recombinant UMI read abundance (log10)” value came to 0.

For the sequence “AGGAAGACATGGACCGGTTTTCCCGGTAATCCGTATTTGCA (site TCGAAGACTTG)”, the “recombinant UMI read abundance (log10)” value was determined as 1.81. To “AGGAAGACATGGACCGGTTTTCCCGGTAATCCGTATTTGCA (site TGAAAGACTTG)” belongs 1.06; to “AGGAAGACATGGACCGGTTTTCCCGGTAATCCGTATTTGCA (site TGGAAAACTTG)”, 0.756. With “AGGAAGACATGGACCGGTTTTCCCGGTAATCCGTATTTGCA (site TGGAAGACTCG)” the figure was 0.00521; with “AGGAAGACATGGACCGGTTTTCCCGGTAATCCGTATTTGCA (site TGGAAGACTTA)”, 0.696; with “AGGAAGACATGGACCGGTTTTCCCGGTAATCCGTATTTGCA (site TGGAAGACTTG)”, 1.16.

Turning to “AGGAAGACATGGACCGGTTTTCCCGGTAATCCGTATTTGCA (site TGGAAGTCTTG)”, the “recombinant UMI read abundance (log10)” value amounted to 0. Turning to “AGGAAGACATGGACCGGTTTTCCCGGTAATCCGTATTTGCA (site TGGATGACTTG)”, the “recombinant UMI read abundance (log10)” value is 0.00459. Turning to “AGGAAGACATGGACCGGTTTTCCCGGTAATCCGTATTTGCA (site TGGGAGACTTG)”, the “recombinant UMI read abundance (log10)” value was 0. As to “AGGAAGACATGGACCGGTTTTCCCGGTAATCCGTATTTGTA (site AGGAAGACTTA)”, the “recombinant UMI read abundance (log10)” value worked out at 2.74. To “AGGAAGACATGGACCGGTTTTCCCGGTAATCCGTATTTGTA (site AGGAAGACTTC)” belongs 0.521; to “AGGAAGACATGGACCGGTTTTCCCGGTAATCCGTATTTGTA (site AGGAAGACTTG)”, 2.11. As to “AGGAAGACATGGACCGGTTTTCCCGGTAATCCGTATTTGTA (site AGGAAGACTTT)”, the “recombinant UMI read abundance (log10)” value came to 1.8. Turning to “AGGAAGGCATGGACCGGTTTTCCCGGTAATCCGTATTTGCA (site AGGAAGACTTG)”, the “recombinant UMI read abundance (log10)” value was determined as 1.98.

As for “AGGAAGGCATGGACCGGTTTTCCCGGTAATCCGTATTTGCA (site AGGAAGCCTTG)”, the “recombinant UMI read abundance (log10)” value amounted to 0. Regarding “AGGAAGGCATGGACCGGTTTTCCCGGTAATCCGTATTTGCA (site AGGAAGGCTTG)”, the “recombinant UMI read abundance (log10)” value worked out at 2.41. As for “AGGAAGGCATGGACCGGTTTTCCCGGTAATCCGTATTTGCA (site AGGAAGTCTTG)”, the “recombinant UMI read abundance (log10)” value is 1.82.

“AGGAATGCATGGACCGGTTTTCCCGGTAATCCGTATTTGCA (site AGGAAGACTTG)”: the “recombinant UMI read abundance (log10)” value worked out at 0. Consider “AGGAATGCATGGACCGGTTTTCCCGGTAATCCGTATTTGCA (site AGGAATGCTTG)”, for which the “recombinant UMI read abundance (log10)” value came to 1.74. To “AGGACGGCATGGACCGGTTTTCCCGGTAATCCGTATTTGCA (site AGGAAGACTTG)” belongs 0. With “AGGACGGCATGGACCGGTTTTCCCGGTAATCCGTATTTGCA (site AGGACGGCTTG)” the figure was 2.23. Take “AGGACTACATGGACCGGTTTTCCCGGTAATCCGTATTTGAG (site AGGACTACTAT)”: the “recombinant UMI read abundance (log10)” value was found to be 0.00837.

On to “AGGACTACATGGACCGGTTTTCCCGGTAATCCGTATTTGAG (site AGGACTACTCT)”, for which the “recombinant UMI read abundance (log10)” value stood at 1.54. On to “AGGACTACATGGACCGGTTTTCCCGGTAATCCGTATTTGAG (site AGGACTACTGT)”, for which the “recombinant UMI read abundance (log10)” value amounted to 0.

As for “AGGACTACATGGACCGGTTTTCCCGGTAATCCGTATTTGAG (site AGGACTACTTT)”, the “recombinant UMI read abundance (log10)” value was 0.493.

For the sequence “AGGACTACATGGACCGGTTTTCCCGGTAATCCGTATTTGAT (site AGGACTACTAT)”, the “recombinant UMI read abundance (log10)” value was 1.77.

The values are drawn from the supplement of paper PMC11208160.
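Note: IS621 bridge recombinase in Escherichia coli cells against a fixed T5 target plasmid.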
